Measured values taken from patent US20090105072A1, “2-(Pyridin-2-Yl)-Pyrimidines for Use as Fungicides” (priority 2007, published 2009).

System: Puccinia recondita
Experiment: Curative activity against brown rust of wheat caused by Puccinia recondita
Type: in vivo
Conditions: 250 ppm, wheat seedlings cultivar Kanzler, 7 days after treatment, untreated plants 90% infected
Experimental: The active compounds were prepared separately or together as a stock solution with 25 mg of active compound which was made up to 10 ml using a mixture of acetone and/or dimethyl sulfoxide (DMSO) and the emulsifier Wettoll® EM 31 (wetting agent having emulsifying and dispersing action based on the ethoxylated alkylphenols) in a volume ratio of solvent/emulsifier of 99 to 1. The mixture was then made up with water to 100 ml. This stock solution was diluted with the solvent/emulsifier/water mixture described to the concentration of active compound stated below.
Leaves of potted wheat seedlings of the cultivar “Kanzler” were inoculated with a spore suspension of brown rust of wheat (Puccinia recondite). The pots were then placed in a chamber with high atmospheric humidity (90 to 95%) and 20 to 22° C. for 24 hours. During this time, the spores germinated and the germ tubes penetrated into the leaf tissue. The next day, the infected plants were sprayed to runoff point with the above-described active compound solution having the active compound concentration stated below. After the spray coating had dried on, the test plants were cultivated in a greenhouse at temperatures between 20 and 22° C. and 65 to 70% relative atmospheric humidity for 7 days. The extent of the rust fungus development on the leaves was then determined.

| Structure (SMILES) | infection (extent of the rust fungus development on the leaves) |
| --- | --- |
| COc1ccc(-c2nc(-c3ncc4c(n3)CCCCC4)ccc2C)cn1 [Example 44] | no infection |
| COc1ccc(-c2nc(-c3ncc4c(n3)CCCCC4)ccc2C)cn1 [drawing 28] | 90% |
